For one compound, transcript levels results are on record in patent publication US20240269139A1, “COMPOUNDS FOR TARGETED PROTEIN DEGRADATION OF KINASES” (DANA-FARBER CANCER INSTITUTE, INC., priority 2020, published 2024).

The assay has as its system MOLT-4 cells. In words: RNA sequencing of kinase transcript levels. Conditions: MOLT-4, 1 μM. The class given is cell-based, H. sapiens. The procedure: With long treatment times (>8 h), it is difficult to distinguish direct degradation of targets from down-regulation caused by downstream or secondary effects.
MOLT-4 cells were seeded into 24 T25 flasks with 10 mL of culture at 10^6 cells/mL prior to compound treatment. […] Cells were harvested using CellStripper™ Dissociation reagent (Corning®), washed twice with PBS, and followed by snap freezing in liquid nitrogen. Total RNA was isolated from cell pellets using the RNeasy® Mini Kit (Qiagen®) following the manufacturer's directions. For quality control, RNA concentration and rRNA ratio (28S/18S) were measured using an Agilent 2100 Bioanalyzer. Samples were submitted to BGI Group for RNA-seq library preparation and Next Generation Sequencing using the BGISEQ-500 platform producing 50 base-pair single-end reads. Sequencing reads were aligned to the human genome (BSgenome.Hsapiens.UCSC.hg19 Bioconductor package, using splicedAlignment=FALSE) and quantified at the level of genes (TxDb.Hsapiens.UCSC.hg19.knownGene Bioconductor package) using the QuasR package with default parameters (Gaidatzis et al., Bioinformatics 31(7):1130-1132 (2015)). Expressed genes were identified using the edgeR Bioconductor package (Robinson et al., Bioinformatics 26(1):139-140 (2010)).

Consider `CC(C)S(=O)(=O)c1ccccc1Nc1nc(Nc2ccc(N3CCN(CCOCCNC(=O)CNc4cccc5c4C(=O)N(C4CCC(=O)NC4=O)C5=O)CC3)cc2)ncc1Cl` (centres unmarked) [SK-3-91], for which the transcript levels entry runs as follows: (8- and 12-h time points) “complete transcriptional collapse”; (up until the 4-h time point) “largely unchanged”.
